Measured values reported in paper PMC5755735, “Discovery of indolylpiperazinylpyrimidines with dual-target profiles at adenosine A2A and dopamine D2 receptors for Parkinson's disease treatment” (PLoS ONE, 2018).
Counter-ions that a name gives are not always drawn.

Legend:
[1] = biological target: T1, human A3 receptors expressed in CHO cells (Homo sapiens, UniProt P0DMS8); test: competition binding at human A3 adenosine receptors ([3H]HEMADO displacement); conditions: displacement of [3H]HEMADO, 95% confidence limits, n = 3–6, read-out: Ki hA3
T1 sequence (P0DMS8 1-318): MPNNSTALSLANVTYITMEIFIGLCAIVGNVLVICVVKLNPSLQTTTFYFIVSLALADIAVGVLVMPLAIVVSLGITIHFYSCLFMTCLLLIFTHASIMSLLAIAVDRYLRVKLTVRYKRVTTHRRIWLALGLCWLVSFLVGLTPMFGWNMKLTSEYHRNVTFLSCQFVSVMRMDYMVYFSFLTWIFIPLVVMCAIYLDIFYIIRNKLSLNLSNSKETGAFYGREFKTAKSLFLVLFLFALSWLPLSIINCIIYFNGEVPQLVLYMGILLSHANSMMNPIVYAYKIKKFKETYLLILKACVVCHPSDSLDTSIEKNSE
Procedure: (§1) A two-step procedure was adopted to prepare membrane for radioligand binding from cells stably transfected with human adenosine receptor subtypes (hA1, hA2A and hA3 expressed on CHO cells). Firstly, cell fragments and nuclei were removed by using low-speed centrifugation (1,000 g for 10 min). After that, crude membrane fraction from supernatant was then sedimented at 100,000 g for 30 min. The membrane pellet was subsequently re-suspended in the specific binding buffer, frozen in liquid nitrogen and stored at -80°C. For measurement of adenylyl cyclase activity in the hA2B receptors, one-step centrifugation procedure was used; the homogenate was sedimented for 30 min at 54,000 g. The so-obtained crude membrane pellet was re-suspended in 50 mM Tris/HCl, pH 7.4 and used for the adenylyl cyclase assay immediately.
(§2) Non-specific binding was determined using theophylline 1 mM. […] Non-specific binding was determined using N^6-R-phenylisopropyl adenosine (R-PIA) 100 μM. ^41 The binding of [^3H]HEMADO to CHO cells transfected with hA3 adenosine receptors was carried out as described earlier. […] Non-specific binding was determined using R-PIA 100 μM.
(§3) The assay mixture was then filtered through the built-in filter at the bottom of the 96-well microplate filtration system (Millipore Multiscreen MAFC) and washed three times with 200 μL of cold buffer. After addition of 20 μL of scintillator to the dried filter plates, the filter bound radioactivity was counted on a Wallac Micro-Beta counter. All Ki values were calculated by non-linear curve fitting with the program SCTFIT [45].

[2] = biological target: T2, human A2B receptors expressed in CHO cells (Homo sapiens, UniProt P29275); test: inhibition of NECA-stimulated adenylyl cyclase activity at hA2B
T2 sequence (P29275 1-332): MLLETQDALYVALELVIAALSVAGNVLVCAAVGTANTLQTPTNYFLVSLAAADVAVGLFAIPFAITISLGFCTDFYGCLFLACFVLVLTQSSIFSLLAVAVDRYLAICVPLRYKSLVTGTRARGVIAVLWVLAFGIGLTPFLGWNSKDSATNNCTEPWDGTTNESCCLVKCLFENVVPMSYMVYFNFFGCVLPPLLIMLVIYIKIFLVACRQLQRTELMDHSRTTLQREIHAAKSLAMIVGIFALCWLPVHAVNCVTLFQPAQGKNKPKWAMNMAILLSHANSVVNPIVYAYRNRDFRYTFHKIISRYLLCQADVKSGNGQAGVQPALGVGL

[3] = biological target: T3, human A1 receptors expressed in CHO cells (Homo sapiens, UniProt P30542); test: competition binding at human A1 adenosine receptors ([3H]CCPA displacement); conditions: displacement of [3H]CCPA, 95% confidence limits, n = 3–6, read-out: Ki hA1
T3 sequence (P30542 1-326): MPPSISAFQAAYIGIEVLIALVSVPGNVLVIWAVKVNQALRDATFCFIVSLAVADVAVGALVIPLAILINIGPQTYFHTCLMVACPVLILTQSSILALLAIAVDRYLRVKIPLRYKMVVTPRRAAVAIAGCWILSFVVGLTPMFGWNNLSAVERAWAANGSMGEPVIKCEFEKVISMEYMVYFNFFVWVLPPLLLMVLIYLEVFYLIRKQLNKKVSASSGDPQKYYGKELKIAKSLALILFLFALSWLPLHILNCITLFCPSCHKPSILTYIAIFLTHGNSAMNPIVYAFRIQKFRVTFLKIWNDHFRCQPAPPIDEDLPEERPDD
Procedure: as §1, §2, §3

[4] = biological target: human A2A receptors expressed in CHO cells (Homo sapiens, UniProt P29274); test: competition binding at human A2A adenosine receptors ([3H]NECA displacement); conditions: for Ki: displacement of [3H]NECA, CHO cells, 95% confidence limits, n = 3–6, read-out: Ki hA2A; for hA1/hA2A / hA3/hA2A: selectivity ratio of Ki values
human A2A receptors expressed in CHO cells, sequence (P29274 whole entry): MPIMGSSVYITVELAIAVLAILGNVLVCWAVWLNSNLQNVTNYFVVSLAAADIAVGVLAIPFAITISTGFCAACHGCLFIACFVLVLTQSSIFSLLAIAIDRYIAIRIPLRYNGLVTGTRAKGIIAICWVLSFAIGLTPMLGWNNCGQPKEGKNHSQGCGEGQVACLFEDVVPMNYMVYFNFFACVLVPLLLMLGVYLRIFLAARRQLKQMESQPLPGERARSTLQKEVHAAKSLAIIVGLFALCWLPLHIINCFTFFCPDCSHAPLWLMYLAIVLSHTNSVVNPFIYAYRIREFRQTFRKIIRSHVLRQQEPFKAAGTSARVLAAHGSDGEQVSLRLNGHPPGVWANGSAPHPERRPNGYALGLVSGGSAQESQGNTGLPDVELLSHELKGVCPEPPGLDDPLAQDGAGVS
Procedure: as §1, §2, §3

[5] = biological target: T1, human A3 receptors expressed in CHO cells; set-up: method as in PMID 17126322; conditions: read-out: KD of radioligand at hA3; cited from earlier work
hA2A = conditions: read-out: Ki hA2A; cited from earlier work
D2 receptor = conditions: competition binding experiments with [3H]spiperone; cited from earlier work

Ki [1] [µM]	Ki [2] [µM]	Ki [3] [µM]	Ki [4] [µM]	hA1/hA2A [4]	hA3/hA2A [4]	fold decrease in hA2A affinity ([4]; versus compound 6) [fold]	fold improvement in hA2A affinity ([4]; versus compound 5) [fold]	SMILES	Kd [5] [µM]	Ki (hA2A) [µM]	Ki (D2 receptor) [µM]
> 30	> 20	> 100	26.9	>4	>1			Cc1cc(C)nc(N2CCN(C(=O)Cc3c[nH]c4cc(F)ccc34)CC2)n1 [Compound 19, 1‐[4‐(4,6‐Dimethylpyrimidin‐2‐yl)piperazin‐1‐yl]‐2‐(6‐fluoro‐1H‐indol‐3‐yl)ethan‐1‐one]			
> 30	> 20	> 100	27.6	>4	>1	3.2		Cc1cc(C)nc(N2CCN(C(=O)Cc3c[nH]c4ccccc34)CC2)n1 [Compound 18, 1‐[4‐(4,6‐Dimethylpyrimidin‐2‐yl)piperazin‐1‐yl]‐2‐(1H‐indol‐3‐yl)ethan‐1‐one]			
								CCCCC#Cc1nc(NC)c2ncn([C@@H]3O[C@H](CO)[C@@H](O)[C@H]3O)c2n1 [[^3H]HEMADO, [^3H]-2-hexyn-1-yl-N^6-methyladenosine]	0.0011		
> 100	> 20	> 100	> 100					Cc1cc(C)nc(N2CCN(C(=O)c3cc4ccccc4[nH]3)CC2)n1 [Compound 21, 2‐[4‐(4,6‐Dimethylpyrimidin‐2‐yl)piperazine‐1‐carbonyl]‐1H‐indole]			
> 30	> 20	4.82	29.7	0.16	>1			Cc1cc(C)nc(N2CCN(C(=O)c3cc4cccc([N+](=O)[O-])c4[nH]3)CC2)n1 [Compound 25, {2‐[4‐(4,6‐Dimethylpyrimidin‐2‐yl)piperazine‐1‐carbonyl]‐1H‐indol‐7‐yl}azinic acid]			
								CCn1c(=O)c2c(nc(/C=C/c3ccc(OC)c(OC)c3)n2C)n(CC)c1=O [KW-6002]		0.012	
	> 20		> 100					Cc1cc(C)nc(N2CCN(C(=O)CCc3c[nH]c4ccccc34)CC2)n1 [Compound 7, 1‐[4‐(4,6‐Dimethylpyrimidin‐2‐yl)piperazin‐1‐yl]‐3‐(1H‐indol‐3-yl)propan‐1‐one]			
								CCCN(CCc1ccccc1)C1CCc2c(O)cccc2C1 (racemic) [(±)-PPHT.HCl, (±)-2-(N-phenethyl-N-propyl)amino-5-hydroxytetralin hydrochloride]			0.0133
19.5	> 20	> 100	15.5	>7	1.26			Cc1cc(C)nc(N2CCN(C(=O)c3c[nH]c4ccc(Cl)cc34)CC2)n1 [Compound 16, 5‐Chloro‐3‐[4‐(4,6‐dimethylpyrimidin‐2‐yl)piperazine‐1‐carbonyl]‐1H‐indole]			
> 30	> 20	> 100	3.63	>28	>8		3	COc1cccc2c(C(=O)N3CCN(c4nc(C)cc(C)n4)CC3)c[nH]c12 [Compound 20, 3‐[4‐(4,6‐Dimethylpyrimidin‐2‐yl)piperazine‐1‐carbonyl]‐7‐methoxy‐1H‐indole]			
> 30	> 20	> 30	> 30					COc1ccc2[nH]c(C(=O)N3CCN(c4nc(C)cc(C)n4)CC3)cc2c1 [Compound 24, 2‐[4‐(4,6‐Dimethylpyrimidin‐2‐yl)piperazine‐1‐carbonyl]‐5‐methoxy‐1H‐indole]			
> 100	> 20	> 100	> 100					Cc1ccc2[nH]c(C(=O)N3CCN(c4nc(C)cc(C)n4)CC3)cc2c1 [Compound 23, 2‐[4‐(4,6‐Dimethylpyrimidin‐2‐yl)piperazine‐1‐carbonyl]‐5‐methyl‐1H‐indole]			
> 30	> 20	> 100	12.7	>8	>2			COc1ccc2[nH]cc(C(=O)N3CCN(c4nc(C)cc(C)n4)CC3)c2c1 [Compound 14, 3‐[4‐(4,6‐Dimethylpyrimidin‐2‐yl)piperazine‐1‐carbonyl]‐5‐methoxy‐1H‐indole]			
> 30	> 20	> 100	18.2	>6	>2			Cc1cc(C)nc(N2CCN(C(=O)Cc3c(C)[nH]c4ccc(F)cc34)CC2)n1 [Compound 15, 1‐[4‐(4,6‐Dimethylpyrimidin‐2‐yl)piperazin‐1‐yl]‐2‐(5‐fluoro‐2‐methyl‐1H‐indol‐3‐yl)ethan‐1‐one]			
	> 20		> 100					Cc1cc(C)nc(N2CCN(CCCc3c[nH]c4ccccc34)CC2)n1 [Compound 11, 3‐{3‐[4‐(4,6‐Dimethylpyrimidin‐2‐yl)piperazin‐1‐yl]propyl}‐1H‐indole]			
> 30	> 20	> 100	18.8	>5	>2			COc1cccc2[nH]cc(C(=O)N3CCN(c4nc(C)cc(C)n4)CC3)c12 [Compound 13, 3‐[4‐(4,6‐Dimethylpyrimidin‐2‐yl)piperazine‐1‐carbonyl]‐4‐methoxy‐1H‐indole]			
	> 20		> 100					Cc1cc(C)nc(N2CCN(C(=O)CCCc3c[nH]c4ccccc34)CC2)n1 [Compound 8, 1‐[4‐(4,6‐Dimethylpyrimidin‐2‐yl)piperazin‐1‐yl]‐4‐(1H‐indol‐3‐yl)butan‐1‐one]			
> 100	> 20	> 100	> 100					Cc1cc(C)nc(N2CCN(C(=O)Cc3c(C)[nH]c4c(F)cc(Br)cc34)CC2)n1 [Compound 17, 2‐(5‐Bromo‐7‐fluoro‐2‐methyl‐1H‐indol‐3‐yl)‐1‐[4‐(4,6-dimethylpyrimidin‐2‐yl)piperazin‐1‐yl]ethan‐1‐one]			
	> 20		> 100					Cc1cc(C)nc(N2CCN(CCCCc3c[nH]c4ccccc34)CC2)n1 [Compound 12, 3‐{4‐[4‐(4,6‐Dimethylpyrimidin‐2‐yl)piperazin‐1‐yl]butyl}‐1H‐indole]			
> 100	> 20	> 100	> 100					Cc1cc(C)nc(N2CCN(C(=O)c3cc4cc(F)ccc4[nH]3)CC2)n1 [Compound 22, 2‐[4‐(4,6‐Dimethylpyrimidin‐2‐yl)piperazine‐1‐carbonyl]‐5‐fluoro‐1H‐indole]			
> 30	> 20	> 100	> 30					Cc1cc(C)nc(N2CCN(Cc3c[nH]c4ccccc34)CC2)n1 [Compound 9, 3‐{[4‐(4,6‐Dimethylpyrimidin‐2‐yl)piperazin‐1‐yl]methyl}‐1H‐indole]			

SMILES	Ki [1] [µM]	Ki [2] [µM]	Ki [3] [µM]	Ki [4] [µM]	hA1/hA2A [4]	hA3/hA2A [4]	fold decrease in hA2A affinity ([4]; versus compound 6) [fold]	fold improvement in hA2A affinity ([4]; versus compound 5) [fold]	Kd [5] [µM]	Ki (hA2A) [µM]	Ki (D2 receptor) [µM]
Cc1cc(C)nc(N2CCN(CCc3c(C)[nH]c4ccccc34)CC2)n1 [Compound 10, 3‐{2‐[4‐(4,6‐Dimethylpyrimidin‐2‐yl)piperazin‐1‐yl]ethyl}‐2‐methyl‐1H‐indole]	39.8	> 20	> 100	34.4	>3	1.16					
